Measurements as given in PubChem BioAssay (NCI).
Where “and” joins values, the source holds several entries; their conditions need not be identical. Identical values can stand only once.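 Each compound was tested at five concentrations against cells in 96-well plates for 48 hours. Abbreviation: GI50, concentration required for 50% inhibition of growth. Definition used: TGI = concentration required for complete inhibition of growth.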

Tests used:
Experiment in all cases: DTP human tumour cell line panel, 48 h
[1] = system: 786-0 renal
[2] = system: BT-549 breast
[3] = system: HCC-2998 colon
[4] = system: HOP-62 NSCLC
[5] = system: K-562 leukemia
[6] = system: MDA-MB-231 breast
[7] = system: NCI-H460 lung
[8] = system: SF-268 CNS
[9] = system: SK-MEL-2 melanoma
[10] = system: SK-OV-3 ovarian
[11] = system: U251 CNS

Row | SMILES | TGI [1] | TGI [2] | TGI [3] | TGI [4] | TGI [5] | TGI [6] | TGI [7] | TGI [8] | TGI [9] | TGI [10] | TGI [11] | GI50 [6]
1 | O=C1CSC(c2cccc([N+](=O)[O-])c2)N1c1ccc(-n2c(-c3ccccc3)nc3ccccc3c2=O)cc1 (configuration not stated) | > 100 µM | > 100 µM | > 100 µM | > 100 µM | > 100 µM | > 100 µM | > 100 µM | > 100 µM | > 100 µM | > 100 µM | > 100 µM | 
2 | O=[N+]([O-])c1cc(-c2nc(-c3ccccc3)c(-c3ccccc3)[nH]2)c(O)c([N+](=O)[O-])c1 | 48.6 µM | 59.8 µM | 30.8 µM | 43.4 µM | > 100 µM | 49.9 µM | 48.3 µM | > 100 µM | 38.3 µM | 40.6 µM | 29.5 µM | 
3 | CCCCn1c2c(n(CCCC)c1=S)-c1c(n(CCCC)c(=S)n1CCCC)SSc1c(n(CCCC)c(=S)n1CCCC)-c1c(n(CCCC)c(=S)n1CCCC)SSc1c(n(CCCC)c(=S)n1CCCC)-c1c(n(CCCC)c(=S)n1CCCC)SS2 | > 50 µM | > 50 µM | > 50 µM | > 50 µM | > 50 µM | 8.67 µM | > 50 µM | > 30.2 µM | 29.3 µM | > 50 µM | > 50 µM | 
4 | COC(=O)C1OC(O[C@H]2CC[C@]3(C)[C@H]4CC=C5[C@@H]6CC(C)(C)CC[C@]6(C(=O)OC6OCC(O)C(O)C6OC6OC(C)C(OC7OCC(O)C(O)C7O)C(O)C6O)CC[C@@]5(C)[C@]4(C)CC[C@H]3C2(C)C)C(O)C(O)C1O (some centres not stated) | 29.2 µM and 32.4 µM | 34.1 µM and 33.2 µM | 25.4 µM and 29.5 µM | 33.2 µM and 32.6 µM | 64.6 µM and 62.2 µM | 20.1 µM and 12.6 µM | > 100 µM and 43.8 µM | 31.2 µM and 34.7 µM | 31.8 µM and 34.7 µM | 35.9 µM and 36.7 µM | 33.3 µM and 33.8 µM | 7.51 µM and 2.75 µM
5 | O=C1Oc2cc(O)cc(/C=C/c3ccc(O)cc3)c2[C@@]12c1c(O)cc(O)cc1OC2c1cccc(O)c1 (some centres not stated) | 59.7 µM | > 100 µM | 46.2 µM | 65.5 µM | > 100 µM | 95.9 µM | 59.6 µM | > 100 µM | 54.8 µM | 93.5 µM | > 100 µM | 
6 | COc1cc(Cc2nccc3cc(OC)c(OC)cc23)c(N=NN(C)C)cc1OC | 18.6 µM | 44 µM | 28.9 µM | > 100 µM | > 100 µM | 36.6 µM | 22.3 µM | 77.8 µM | 70.2 µM | 49.2 µM | 72 µM | 
7 | COC(=O)C1(C)C=CC(=O)C2(C)C1C(O)C1OC3CC(c4ccoc4)C(C)=C3C1(C)C2CC(=O)O (configuration not stated) | > 100 µM | > 100 µM | > 100 µM |  |  | > 100 µM | > 100 µM | > 100 µM | > 100 µM | > 100 µM | > 100 µM | 
8 | COC(=O)c1ccccc1C1CN=NC12Cc1cc(C)ccc1C2=O (configuration not stated) | > 100 µM | > 100 µM | > 100 µM | > 100 µM | > 100 µM | > 100 µM | > 100 µM | > 100 µM | > 100 µM | > 100 µM | > 100 µM | 
9 | CCOC(=O)c1c(N2CCOCC2)[nH]c(=O)c(C(c2ccco2)c2c(O)c(C(=O)OCC)c(N3CCOCC3)[nH]c2=O)c1O | > 100 µM | > 100 µM | > 100 µM | > 100 µM | > 100 µM | > 100 µM | > 100 µM | > 100 µM | > 100 µM | > 100 µM | > 100 µM | 
10 | CCOC(=O)C(SCCO)C(C(=O)OCC)n1ccc(=O)[nH]c1=O (configuration not stated) | > 50.6 µM | > 100 µM | > 100 µM | > 96.6 µM | 36.1 µM | > 82.2 µM | > 100 µM | > 100 µM | > 79.8 µM | > 100 µM | 82.9 µM | 
11 | CC(=O)OCc1ccc2oc(=O)c(C(=O)Oc3ccccc3)cc2c1 | 45.8 µM | > 100 µM | > 100 µM | > 100 µM | 30 µM | 84.2 µM | > 100 µM | > 100 µM | > 100 µM | > 100 µM | > 100 µM | 
12 | Cc1cn(CC2=NCC(C)N2)c(=O)[nH]c1=O (configuration not stated) | > 100 µM | > 100 µM | > 100 µM | > 100 µM | > 100 µM | > 100 µM | > 100 µM | > 100 µM | > 100 µM | > 100 µM | > 100 µM | 
13 | N[C@H]1CCCC[C@@H]1N1C(=O)c2ccccc2C1(O)c1ccc(Cl)cc1 (some centres not stated) | 26.4 µM | 28.8 µM | 3.5 µM | 29.6 µM | 13.2 µM | 27.5 µM | 25.2 µM | 27.5 µM | 30.6 µM | 29.8 µM | 26.6 µM | 
